How the values were obtained:
[1] = system: Human keratinocyte HaCaT cells; test: Inhibition of intracellular ROS induced by UV irradiation (H2DCF-DA); format: cell-based; conditions: 20 μM rhododendrin 1 hour, then 100 J/m^2 UV light
Experimental: Human keratinocyte HaCaT cells (obtained from professor N. Fusenig, Cancer Research, Germany) were placed in a 60-mm culture dish at a density of 5×10^5 cells (1×10^6 cells for a 100 mm culture dish), and then cultured in 10% FBS (fetal bovine serum)-containing DMEM (Dulbecco's modified Eagle's medium) for 24 hours.
After culture, the cells were treated with 20 μM rhododendrin for 1 hour, and then washed three times with PBS (phosphate buffered saline). To induce ROS (reactive oxygen species), the cells were irradiated with 100 J/m^2 of UV light from a UV lamp (FSX 24 T12/UVB/HO, Pansol™ USA). Immediately after UV irradiation, the cells were washed with PBS and cultured for 4 hours in 1% FBS-containing DMEM medium supplemented with […]. Then, the cells were treated with 25 μM DCFH-DA (2,7-dichlorofliuorescin diacetate) in HBSS (Hank's balanced salt solution, BioWhittaker, CAMBREX, USA) buffer for 30 minutes, and then washed three times with PBS. Next, the measurement of ROS production in the cells by H2DCF-DA staining was performed in the same manner as described in Example 3-1.

[2] = system: TLR7 signaling; test: Effect on TLR7 signaling pathway in keratinocytes (Western blot, immunofluorescence); format: cell-based, human
Experimental: Keratinocytes were treated with imiquimod, and then TLR7 signaling in the cells was examined by Western blot analysis and immune fluorescence staining. The detailed experimental methods are as follows.
Primary keratinocytes collected from the foreskin of a healthy subject were cultured. Human keratinocytes were cultured in keratinocyte serum-free medium (K-SFM) supplemented with epidermal growth factor (EGF) and bovine pituitary extract (Gibco BRL, Rockville, Md.). When the cells reached to 70% confluency, the cells were washed twice with PBS and cultured in K-SFM for 24 hours. To induce the differentiation of the keratinocytes, 1.2 mM calcium was added to the cells which were then cultured for 1, 3, 7 and 14 days, respectively.
Western blot analysis was performed in the following manner. Serum-starved keratinocytes were treated with various concentrations of rhododendrin for 1 hour, and then stimulated by treatment with imiquimod for different time periods. The cell pellets were lysed in ice-cold RIPA buffer (Roche Applied Science, Indianapolis, Ind., USA) containing protease inhibitor cocktail at 4° C. for 30 minutes. Protein samples were isolated by SDS-PAGE (sodium dodecylsulfate-polyacrylamide gel electrophoresis) and analyzed by immunoblotting. Briefly, the protein on the SDS polyacrylamide gel was transferred to a nitrocellulose membrane (Amersham, UK). […] A signal was detected using X-ray film development or Image-Analyzer System (LAS-3000, Fujifilm, Japan) in a dark room.
In addition, the expression patterns of TLR7, NF-kB (a marker of TLR7) and caveolin (a marker of psoriasis) were analyzed by immunofluorescence in the following manner.
Primary keratinocytes (5×10^5 cells/well) were pre-treated with rhododendrin for 1 hour, and then stimulated with imiquimod for 1 hour. The signal of immunostained NF-kB p65 was analyzed by the method described in Y. Kim. et. al., Free Radical Biology and Medicine; 51(11): 1985-1995, 2011. […]

[3] = system: HaCaT cells; test: ROS scavenging activity, ROS induced by TNF-α/IFN-γ (H2DCF-DA); format: cell-based, human
Experimental: HaCaT cells were seeded at a density of 3×10^5 cells/well in 6-well plates for 12 hours. Cells were washed with serum-free media, treated with 20 μm rhododendrin for 1 hour, and then stimulated with 10 ng/ml of TNF-α and 100 U/ml of […] for 3 hours. The cells were stabilized in Hanks' balanced salt solution (HBSS) for 30 minutes, stained with 10 μM 2′,7′-dichlorofluorescin diacetate (H2DCF-DA) at 37° C. for 30 minutes, and ROS signal was then analyzed with confocal microscopy with emission at 513 nm and excitation at 488 nm. Also, the fluorescence of the cells was measured with a microplate reader (Synergy, BIO TEK, US).

[4] = system: HaCaT cells; test: Cytotoxicity of rhododendrin, MTT cell viability; format: cell-based, human; conditions: various concentrations, 24 hours
Experimental: HaCaT cells were purchased from CLS Cell Line Service GmbH (Eppelheim, Germany). HaCaT cells were seeded at a density of 2×10^4 cells/well in 96-well plates. After a 12 hours incubation, the cells were incubated with various concentrations of rhododendrin for 24 hours. Then, cells were incubated with 3-(4,5-dimethylthiaol-2-yl)-2,5-diphenyltetrazolium bromide (MTT) reagent for 2-4 hours at 37° C. To calculate cell viability, MTT signals were quantified with a microplate reader (BioTek, Winooski, Vt., USA) at wavelength of 540 nm.

[5] = system: mice having psoriasis induced by imiquimod; test: Inhibition of hyperkeratinization in imiquimod psoriasis-induced mouse model (histology, qRT-PCR); format: in vivo, mice (C57BL/6)
Experimental: Tissues were excised from mice having psoriasis induced by imiquimod, and then the effect of rhododendrin on the inhibition of hyperkeratinization in the tissues was examined by histological analysis and qRT (quantitative real-time)-PCR analysis.
Specifically, in order to induce psoriasis by imiquimod, the hairs on the back of 8-week-old mice (C57BL/6, Central Animal Laboratory Inc.) were removed by using hair removal cream. The back of the mice was pre-treated daily with 20 mM rhododendrin before 1 hour, and then imiquimod (3.125 mg) was applied to the back at an one-day interval for 7 days. On the last day of application, the tissues were collected.
Histological examination of the mice skin was performed in the following manner. The mouse skin tissues were fixed in PBS containing 4% paraformaldehyde for 24 hours, washed with tap water, dehydrated with ethanol, and then embedded in paraffin to make a paraffin block. The paraffin block was cut with a microtome into 4 μm-thick sections, which were then placed on a glass slide and treated with xylene to remove wax (paraffin). Then, the tissue sections were dehydrated with ethanol and stained with hematoxylin-eosin (H&E). Histological analysis was performed using a fluorescence attached microscope (Olympus, Japan).
RNA isolation and qRT (quantitative real-time)-PCR analysis were performed in the following manner. Total RNAs were isolated from the tissues using an RNeasy Mini Kit (Qiagen, Valencia, Calif., USA) according to the manufacturer's instructions, and then synthesized into cDNA using QuantiTect Reverse Transcription Kit (Qiagen) according to the manufacturer's instructions. qRT-PCR was performed using Rotorgene™6000 (Corbett life Science) with KAPA™SYBR FAST q-PCR Master Mix(2×) universal. The relative amount of mRNAs was determined by […] method using GAPDH as an internal control. PCR was performed under the following conditions: 95° C. for 5 min; 35 cycles, each consisting of 96° C. for 20 sec, 60° C. for 20 sec and 72° C. for 20 sec; and one cycle at 72° C. for 5 min.

## C[C@H](CCc1ccc(O)cc1)O[C@@H]1O[C@H](CO)[C@@H](O)[C@H](O)[C@H]1O [rhododendrin, Rhododendrin]
[1]; FIG. 4
  ROS fluorescence by confocal microscopy: only very minute fluorescence spots were found
[1]; versus group not treated, FIG. 5
  amount of DCF-fluorescence (microplate reader): significantly lower
[2]; keratinocytes, imiquimod and 20 μM rhododendrin, fluorescence staining, FIG. 14
  activity of caveolin (marker of psoriasis): protected
[2]; primary keratinocytes pre-treated with rhododendrin 1 hour, then imiquimod, FIGS. 12 and 13
  activity of TLR7 (down signaling): inhibited
[2]; primary keratinocytes pre-treated with rhododendrin 1 hour, then imiquimod, phospho-NF-kB p65 Western blot and p65 immunostaining, FIGS. 12 and 13
  activity of NF-kB (marker of TLR7): also inhibited
[3]; 20 μM rhododendrin, then TNF-α/IFN-γ, FIG. 3
  production of DCF-fluorescence (microplate reader): decreased to that in the control group not treated with TNF-α/IFN-γ
[3]; 20 μm rhododendrin 1 hour, then 10 ng/ml TNF-α and 100 U/ml IFN-γ 3 hours, FIG. 2
  ROS signal (H2DCF-DA fluorescence) by confocal microscopy: no fluorescence was detected
[4]
  cytotoxicity (cell viability, MTT): no cytotoxicity
[5]; 20 mM rhododendrin on the back daily 1 hour before imiquimod (3.125 mg), 7 days, FIGS. 6 to 8
  induction of psoriasis (visual observation of the back tissue): significantly decreased
[5]; 20 mM rhododendrin topical, imiquimod 7 days, H&E histology, FIGS. 7, 8
  thickness of the epidermal and dermal layers: a decrease in the thickness of the epidermal and dermal layers
[5]; 20 mM rhododendrin topical, imiquimod 7 days, versus control group, FIG. 9
  expression of TLR (mRNA, qRT-PCR) in skin tissue: significantly lower
